Experiment [1] addresses T1, hCB1 (Homo sapiens, UniProt P21554). Description: hCB1 GTPγS agonist assay (HEK-293 membranes). In kind it is biochemical. From the text:
cDNA expression clones for human CB 1 (hCB1, Genbank Accession No. AY225225) and human CB2 (hCB2, Genbank Accession No. AY242132) expressed in vector pcDNA3.1+ were purchased from UMR cDNA Resource Center, Rolla, Mo. (Clone ID CNR01L000 for hCB1; CNR0200000 for hCB2).
Stable, HEK-293-derived cell lines that recombinantly express hCB1 or hCB2 were established. In brief, the clone hCB1 (CNR1L) or hCB2 (CNR2) was transfected into human embryonic kidney cells (HEK-293) using Lipofectamine 2000 (Gibco, Cat#11668-019) according to the manufacturer's protocol. Transfected clones were isolated by single colony purification and clones were screened for receptor expression using a whole cell, ^3H—CP 55,940 radioligand binding assay. HEK-293 stable cells were maintained in Dulbecco's modified Eagles medium (DMEM) containing 10% fetal bovine serum, 2 mM L-glutamine and 0.5 mg/mL G-418.
Membranes were isolated from transfected cells as follows. Monolayers of cultured cells were washed twice with phosphate-buffered saline (PBS). Cells were scraped into 20 mM HEPES, pH 7.4, 10 mM EDTA containing complete cocktail protease inhibitors (Roche, Catalog #11 697 498 001), and were homogenized by an electric-powered mechanical probe homogenizer (Omni GLH; probe G7-195S) for 40 seconds at 7000 rpm. Homogenates were centrifuged 10 minutes at 1000×g at 4° C. The supernatant was collected and was centrifuged for 1 hour at 40,000×g. The supernatant was then decanted and the resulting pellet was re-suspended in 20 mM HEPES, pH 7.4, 5 mM MgCl2, 1 mM EDTA, 10% sucrose with complete cocktail protease inhibitors. Protein concentration of membrane suspensions were measured by Bradford Protein Assay using bovine serum albumin as the standard (BioRad catalog #500-0006). Protein concentrations of membrane suspensions were adjusted with the final buffer in the range of 5 to 10 mg/mL and were stored at −80° C. until further use.
^35S GTPγS binding assays were performed by incubating recombinant cell membranes prepared above (5 μg) in the presence of scintillation proximity assay beads (SPA beads, Catalog #RPNQ0252 GE Healthcare, Buckinghamshire, England) in GTPγS binding buffer [50 mM HEPES (pH 7.4), 100 mM NaCl, 5 mM MgCl2, 0.001% saponin (Sigma catalog #S4521)] supplemented with 20 uM GDP (Sigma catalog #G7127) in the presence or absence of test compound. The reaction was carried out in 96-well microplates with 0.1 nM [^35S]GTPγS (specific activity=1250 Ci/mmol; Perkin Elmer catalog #NEG030X250UC) in a final volume of 100 μL. After a 90 min room temperature incubation, the reaction was analyzed using a scintillation counter (Perkin Elmer Microbeta instrument). Binding data were analyzed using GraphPad Prism.

Experiment [2] addresses T1, hCB1. Description: hCB1 cAMP agonist assay (HEK-293 cells). In kind it is cell-based.
Experiment [3] addresses T1, hCB1. Description: hCB1 radioligand binding assay ([3H]-CP 55,940 displacement). The settings on record: hCB1 IC50 (CP displ, nM, HEK), HEK membranes. The procedure, abridged:
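Membranes from stable HEK-293 cells expressing recombinant hCB1 (2-10 μg protein) incubated 90 minutes at room temperature with 0.5 nM [3H]-CP 55,940 in 50 mM Tris-HCl pH 7.5, 5 mM MgCl2, 2.5 mM EDTA, 0.1% fatty acid free BSA. Filtration then scintillation counting; nonspecific binding with 1 μM unlabelled CP 55,940.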

For experiment [4], the target named is T2, hCB2 (Homo sapiens, UniProt P34972). Description: hCB2 GTPγS agonist assay (HEK-293 membranes). The class given is biochemical. An outline of the steps: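 Membranes from HEK-293 cells transfected with human CB2 (5 μg) incubated with SPA beads, 0.1 nM [35S]GTPγS and 20 uM GDP in 50 mM HEPES pH 7.4, 100 mM NaCl, 5 mM MgCl2, 0.001% saponin. Incubation 90 min at room temperature. Agonist-stimulated binding read by scintillation counting.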
T2 sequence (P34972 whole entry): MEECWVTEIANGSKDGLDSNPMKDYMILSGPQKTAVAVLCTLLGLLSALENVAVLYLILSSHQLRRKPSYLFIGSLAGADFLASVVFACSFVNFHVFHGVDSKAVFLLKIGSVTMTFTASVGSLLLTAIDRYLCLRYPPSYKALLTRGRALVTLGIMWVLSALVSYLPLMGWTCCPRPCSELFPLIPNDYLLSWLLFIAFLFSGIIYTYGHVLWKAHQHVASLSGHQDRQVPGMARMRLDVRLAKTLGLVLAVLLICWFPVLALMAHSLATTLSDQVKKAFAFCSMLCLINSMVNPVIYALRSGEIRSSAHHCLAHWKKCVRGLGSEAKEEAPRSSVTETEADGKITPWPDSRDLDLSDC

In experiment [5] the target is T2, hCB2. Description: hCB2 cAMP agonist assay (HEK-293 cells). In kind it is cell-based. The procedure, abridged:
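HEK-293 cells stably expressing hCB2, treated 30 min at 37° C with compound in HBSS/10 mM HEPES/0.1% BSA alongside forskolin (90 uM in the 3× solution, not final).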

Experiment [6] addresses T2, hCB2. Description: hCB2 radioligand binding assay ([3H]-CP 55,940 displacement). As to conditions: hCB2 IC50 (CP displ, nM, HEK), HEK membranes. The procedure, abridged:
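Membranes from cells transfected with human CB2 cDNA (pcDNA3.1+), kept in 20 mM HEPES pH 7.4, MgCl2, EDTA, sucrose with protease inhibitors.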

[7] abbreviates: GTPγS agonist, HEK membranes, read-out: hCB1 EC50 (GTPyS ag, nM, HEK).
Where [8] appears, read: cAMP agonist, HEK, 96-well, read-out: hCB1 EC50 (cAMP ag, nM, HEK (96-well)).

SMILES strings stand for the structures. Several values for one entry are separate records, joined by “and”; a condition that tells them apart may be missing. Equal values may be shown once.

T1 sequence (P21554 whole entry): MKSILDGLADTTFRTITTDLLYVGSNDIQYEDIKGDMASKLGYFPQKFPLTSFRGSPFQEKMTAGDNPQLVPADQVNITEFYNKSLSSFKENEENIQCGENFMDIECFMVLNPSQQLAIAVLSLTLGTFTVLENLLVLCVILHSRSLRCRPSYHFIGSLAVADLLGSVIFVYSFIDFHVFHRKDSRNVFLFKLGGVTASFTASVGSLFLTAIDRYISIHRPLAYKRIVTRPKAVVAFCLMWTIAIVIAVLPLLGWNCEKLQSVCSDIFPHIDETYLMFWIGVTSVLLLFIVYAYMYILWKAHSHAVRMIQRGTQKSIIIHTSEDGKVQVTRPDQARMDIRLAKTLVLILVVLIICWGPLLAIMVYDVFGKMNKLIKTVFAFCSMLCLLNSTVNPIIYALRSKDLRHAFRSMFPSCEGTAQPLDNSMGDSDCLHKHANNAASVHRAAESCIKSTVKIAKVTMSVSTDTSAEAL

What is called EC50 is the concentration giving half of the maximal effect. What is called IC50 is the midpoint of a concentration-inhibition curve. A lower IC50 goes with inhibition by little substance. For `CCCn1c(C(=O)c2cn(CC3CCOCC3)c3ccccc23)cc2ccsc21` [Compound I-41], the EC50 in experiment [1], in experiment [2], in experiment [4] and in experiment [5] was less than 100 nM in each case. For the same molecule, the IC50 in experiment [3] and in experiment [6] was less than 100 nM each time.
`CCCn1c(C(=O)c2cn(CC)c3ccccc23)cc2ccsc21` [Compound I-42]: the EC50 in experiment [1] (setting [7]) is 100 to 1000 nM; in experiment [2] (setting [8]) it was 100 to 1000 nM; in experiment [4], less than 100 nM; in experiment [5] it was less than 100 nM. Further, the IC50 in experiment [3] and in experiment [6] was less than 100 nM throughout.
Take `CCCn1cc(C(=O)c2cc3ccsc3n2CCC)c2cccnc21` [Compound I-45]: the EC50 in experiment [1] was 100 to 1000 nM; in experiment [2], 100 to 1000 nM; in experiment [4], less than 100 nM; in experiment [5], less than 100 nM. In addition, the IC50 was < 100 nM and 100 to 1000 nM in experiment [3]; less than 100 nM in experiment [6].
Take `CCCn1c(C(=O)c2c(C)n(CCC3CCOCC3)c3ccccc23)cc2ccsc21` [Compound I-57]: the concentration giving a half-maximal response (EC50) was 100 to 1000 nM in experiment [1], 100 to 1000 nM in experiment [2], less than 100 nM in experiment [4] and less than 100 nM in experiment [5]. For the same molecule, the 50% inhibitory concentration (IC50) in experiment [3] was 100 to 1000 nM; in experiment [6] it was less than 100 nM.
Take `CCCCCn1c(C)c(C(=O)c2cc3ccsc3n2CCC)c2ccccc21` [Compound I-60]: the half-maximal effective concentration (EC50) is 100 to 1000 nM in experiment [1], less than 100 nM in experiment [2], less than 100 nM in experiment [4] and less than 100 nM in experiment [5]. The IC50 in experiment [3] and in experiment [6] was less than 100 nM in each case.
Turning to `CCCn1cc(C(=O)c2cc3ccsc3n2CCC)c2ccccc21` [Compound I-62], the EC50 in experiment [1] was 100 to 1000 nM; in experiment [2], less than 100 nM; in experiment [4] it was less than 100 nM; in experiment [5], less than 100 nM. Also, the half-maximal inhibitory concentration (IC50) in experiment [3] and in experiment [6] was less than 100 nM each time.
Consider `CCCn1c(C(=O)c2c(C)n(CC3CCOCC3)c3ccccc23)cc2ccsc21` [Compound I-66], for which the 50% effective concentration (EC50) in experiment [1] is 100 to 1000 nM; in experiment [2], less than 100 nM; in experiment [4], less than 100 nM; in experiment [5], less than 100 nM. Also, the IC50 in experiment [3] was 100 to 1000 nM; in experiment [6] it was less than 100 nM.
As for `CCCn1cc(C(=O)c2cc3ccsc3n2CC)c2ccccc21` [Compound I-70], the EC50 in experiment [1] was 100 to 1000 nM; in experiment [2], 100 to 1000 nM; in experiment [4], less than 100 nM; in experiment [5], less than 100 nM. For the same molecule, the IC50 in experiment [3] was 100 to 1000 nM; in experiment [6] it was less than 100 nM.
Turning to `CCn1c(C(=O)c2c3c(n(CC4CCOCC4)c2C)CCCC3)cc2ccsc21` [Compound I-86], the EC50 in experiment [1] (setting [7]) was 100 to 1000 nM; in experiment [2] (setting [8]), 100 to 1000 nM; in experiment [4] it was less than 100 nM; in experiment [5], less than 100 nM. Moreover, the half-maximal inhibitory concentration (IC50) in experiment [3] and in experiment [6] was less than 100 nM each time.
